# Values quoted from earlier work in patent US20180050107A1, “NEUROSTEROID COMPOSITIONS AND METHODS OF USE THEREOF” (Janssen Pharmaceutica NV, priority 2016, published 2018).
# Read-outs that look alike come from different tables or passages of the source. Where a SMILES comes first, the peptide text is derived from it.
# Legend:
# [1] = biological target: T1, rat cerebellar GABA delta subunits (Rattus norvegicus, UniProt P18506)
# T1 construct: rat cerebellar GABA delta subunits; host or cells: rat cerebellum
# T1 sequence (P18506 17-449 limits assumed): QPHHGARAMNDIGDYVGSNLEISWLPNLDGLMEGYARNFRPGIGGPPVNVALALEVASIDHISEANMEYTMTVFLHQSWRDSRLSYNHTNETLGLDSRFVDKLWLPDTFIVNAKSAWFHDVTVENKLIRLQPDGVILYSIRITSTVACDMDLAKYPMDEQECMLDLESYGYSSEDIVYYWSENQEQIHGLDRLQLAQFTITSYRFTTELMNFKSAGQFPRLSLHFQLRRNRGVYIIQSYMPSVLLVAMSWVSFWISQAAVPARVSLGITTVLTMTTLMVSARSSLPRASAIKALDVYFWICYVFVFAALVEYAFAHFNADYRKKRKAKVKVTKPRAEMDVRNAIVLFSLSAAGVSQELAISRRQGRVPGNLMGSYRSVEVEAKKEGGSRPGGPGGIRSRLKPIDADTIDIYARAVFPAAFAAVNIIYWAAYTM
# T1 sequence (P30191 20-453 partner): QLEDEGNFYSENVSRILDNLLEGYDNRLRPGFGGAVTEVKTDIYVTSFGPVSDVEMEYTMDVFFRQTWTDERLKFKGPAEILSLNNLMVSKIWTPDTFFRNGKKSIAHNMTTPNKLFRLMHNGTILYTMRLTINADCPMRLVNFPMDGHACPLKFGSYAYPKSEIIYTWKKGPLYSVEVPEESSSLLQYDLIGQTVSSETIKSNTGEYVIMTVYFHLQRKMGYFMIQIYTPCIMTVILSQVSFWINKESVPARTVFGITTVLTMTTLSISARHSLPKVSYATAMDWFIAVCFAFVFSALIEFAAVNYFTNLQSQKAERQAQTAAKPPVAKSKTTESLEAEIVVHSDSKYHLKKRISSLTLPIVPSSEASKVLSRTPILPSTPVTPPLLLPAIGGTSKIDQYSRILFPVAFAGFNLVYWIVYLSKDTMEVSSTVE
# [2] = not given; remark: listed apart in the source
# [3] = in vivo
# [4] = in vivo; remark: listed apart in the source
# [5] = biological target: T2, GABA(A) delta (Homo sapiens, UniProt O14764); settings: 100 uM
# T2 sequence (O14764 25-452): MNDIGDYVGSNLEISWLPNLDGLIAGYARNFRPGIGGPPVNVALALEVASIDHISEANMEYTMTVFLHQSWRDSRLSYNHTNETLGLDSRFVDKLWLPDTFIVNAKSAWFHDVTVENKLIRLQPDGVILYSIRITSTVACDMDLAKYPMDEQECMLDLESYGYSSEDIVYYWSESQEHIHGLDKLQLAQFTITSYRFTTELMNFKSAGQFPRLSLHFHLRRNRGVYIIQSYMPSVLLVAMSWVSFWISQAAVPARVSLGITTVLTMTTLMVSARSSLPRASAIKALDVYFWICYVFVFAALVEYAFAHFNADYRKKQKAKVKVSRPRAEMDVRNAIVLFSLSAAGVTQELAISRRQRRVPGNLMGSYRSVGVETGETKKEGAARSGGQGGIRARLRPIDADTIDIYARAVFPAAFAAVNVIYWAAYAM
# [6] = oral administration, healthy volunteers
# [7] = gangliosides added to conventional liposomes
# [8] = biological target: T3, PPAR-gamma receptors (Homo sapiens, UniProt P37231); settings: read-out: EC for activation of PPAR-gamma receptors
# T3 sequence (P37231 1-505): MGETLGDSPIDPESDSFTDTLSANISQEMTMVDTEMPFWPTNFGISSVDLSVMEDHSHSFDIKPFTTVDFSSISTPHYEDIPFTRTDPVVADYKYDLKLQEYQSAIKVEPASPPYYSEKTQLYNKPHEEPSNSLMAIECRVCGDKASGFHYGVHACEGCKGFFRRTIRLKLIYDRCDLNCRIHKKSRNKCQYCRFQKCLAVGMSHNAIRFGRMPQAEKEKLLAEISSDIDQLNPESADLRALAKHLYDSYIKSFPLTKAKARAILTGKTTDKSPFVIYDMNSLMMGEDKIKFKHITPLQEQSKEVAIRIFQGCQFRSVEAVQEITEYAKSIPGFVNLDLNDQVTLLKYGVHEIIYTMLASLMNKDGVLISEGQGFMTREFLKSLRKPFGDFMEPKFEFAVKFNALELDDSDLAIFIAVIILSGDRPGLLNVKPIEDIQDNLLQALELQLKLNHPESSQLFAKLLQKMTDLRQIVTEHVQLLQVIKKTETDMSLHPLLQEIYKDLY
# [9] = biological target: T4, TrkB receptors (Mus musculus, UniProt P15209); settings: mouse hippocampus
# T4 construct: its downstream PI3K/Akt and MAPK receptors in the mouse hippocampus; host or cells: mouse hippocampus
# T4 sequence (P15209 32-821): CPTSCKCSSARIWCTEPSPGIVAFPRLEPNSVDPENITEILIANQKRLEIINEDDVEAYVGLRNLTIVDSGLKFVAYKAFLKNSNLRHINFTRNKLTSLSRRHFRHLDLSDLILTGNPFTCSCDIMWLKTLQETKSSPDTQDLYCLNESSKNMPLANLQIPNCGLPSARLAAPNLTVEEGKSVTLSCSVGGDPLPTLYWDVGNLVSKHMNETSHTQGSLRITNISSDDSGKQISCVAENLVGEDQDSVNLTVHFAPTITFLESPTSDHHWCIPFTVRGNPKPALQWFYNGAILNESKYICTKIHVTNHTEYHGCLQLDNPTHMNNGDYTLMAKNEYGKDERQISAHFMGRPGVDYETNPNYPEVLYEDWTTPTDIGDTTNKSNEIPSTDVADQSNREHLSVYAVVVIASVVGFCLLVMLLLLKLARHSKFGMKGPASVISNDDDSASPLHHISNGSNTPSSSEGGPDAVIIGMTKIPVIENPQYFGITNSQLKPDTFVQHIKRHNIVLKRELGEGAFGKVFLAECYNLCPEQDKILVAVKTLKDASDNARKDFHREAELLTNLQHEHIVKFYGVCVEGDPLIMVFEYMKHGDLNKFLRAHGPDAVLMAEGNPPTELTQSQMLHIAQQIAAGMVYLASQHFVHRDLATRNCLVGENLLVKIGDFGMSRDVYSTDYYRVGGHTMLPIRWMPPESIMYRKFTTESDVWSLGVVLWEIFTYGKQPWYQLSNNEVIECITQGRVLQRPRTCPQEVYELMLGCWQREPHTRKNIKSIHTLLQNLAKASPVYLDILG
# [10] = system: lung cancer patients; settings: combination with EGFR-TKI chemotherapy
# [11] = in vivo; remark: listed apart in the source
# [12] = ICU patients
# [13] = not given; remark: listed apart in the source
# [14] = biological target: T2, GABA(A) delta; settings: 10 uMol/L, in vitro
# [15] = not given; remark: listed apart in the source
# [16] = biological target: T2, GABA(A) delta; settings: 1 μMol/L
# [17] = system: neurons; settings: read-out: EC50 for suppression of apoptosis in neurons
# [18] = in vivo; remark: listed apart in the source
# [19] = system: MMP-9; settings: 0.1 μM
# [20] = system: MDA-MB-231 breast cancer cells; settings: 0.1 μM
# [21] = biological target: β2-AR (Homo sapiens, UniProt P07550); settings: 0.1 μM
# Chain of β2-AR (P07550 whole entry): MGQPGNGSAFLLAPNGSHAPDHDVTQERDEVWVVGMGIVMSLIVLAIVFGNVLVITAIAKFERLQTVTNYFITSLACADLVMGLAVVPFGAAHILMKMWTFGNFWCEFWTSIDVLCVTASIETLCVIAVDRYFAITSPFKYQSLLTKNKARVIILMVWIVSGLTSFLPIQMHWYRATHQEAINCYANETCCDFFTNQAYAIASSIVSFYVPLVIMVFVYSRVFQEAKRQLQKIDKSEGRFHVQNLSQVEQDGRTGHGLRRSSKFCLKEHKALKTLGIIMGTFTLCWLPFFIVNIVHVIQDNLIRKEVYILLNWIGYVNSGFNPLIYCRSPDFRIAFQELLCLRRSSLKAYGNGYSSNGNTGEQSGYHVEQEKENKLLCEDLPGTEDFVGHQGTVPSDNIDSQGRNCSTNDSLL
# [22] = in vivo; remark: listed apart in the source
compound,measurement,setting,value
"CC(=O)[C@H]1CC[C@H]2[C@@H]3CC[C@H]4C[C@H](O)CC[C@]4(C)[C@H]3CC[C@]12C [Allopregnanolone, 3α-hydroxy-5α-pregnan-20-one]",concentration range potentiating rat cerebellar GABA delta subunits,[1],nanomolar range
NCCC(=O)N[C@@H](Cc1cnc[nH]1)C(=O)O [Carnosine],half-life in human plasma,,< 5 min
same,log P,[2],−1.19
CC[C@H](C)[C@@H]1NC(=O)[C@H](Cc2ccc(O)cc2)NC(=O)[C@@H](N)CSSC[C@@H](C(=O)N2CCC[C@H]2C(=O)N[C@@H](CC(C)C)C(=O)NCC(N)=O)NC(=O)[C@H](CC(N)=O)NC(=O)[C@H](CCC(N)=O)NC1=O [oxytocin],crossing of the blood brain barrier,[3],failure to cross the blood brain barrier
same,half-life,[4],~6.8 min
O=C(O)[C@H]1O[C@@H](Oc2cc3oc(-c4ccccc4)cc(=O)c3c(O)c2O)[C@H](O)[C@@H](O)[C@@H]1O [baicalin],log P,[2],1.27
CC1(C)C2CC=C(CO)C1C2 (centres unmarked) [myrtenol],GABA(A) delta agonism,[5],GABA(A) delta agonist
NCCS(=O)(=O)O [Taurine],half-life,[6],60 min
same,log P,[2],−3.36
"O=C[C@H](O)[C@@H](O)[C@H](O)[C@H](O)COP(=O)(O)O [Example G6P, glucose-6-phosphate]",flux from the liposome into plasma,[7],about 5 % per hour
same,log P,[2],−3.24
O=c1c(O[C@@H]2O[C@H](CO)[C@H](O)[C@H](O)[C@H]2O)c(-c2ccc(O)c(O)c2)oc2cc(O)cc(O)c12 [hyperoside],log P,[2],1.75
CC1=CC(O)C2CC1C2(C)C (centres unmarked) [verbenol],GABA(A) delta agonism,[5],GABA(A) delta agonist
"N[C@@H](CCC(=O)NCCS(=O)(=O)O)C(=O)O [GGT, Gamma-Glutamyltaurine]",log P,[2],−3.36
COc1ccc([C@@H]2CC(=O)c3c(O)cc(O)cc3O2)cc1O [hesperetin],log P,[2],2.90
hesperetin glucuronide,EC50,[8],~100 µM
same,log P,[2],0.12
"O=c1cc(-c2ccccc2)oc2c(O)c(O)ccc12 [7,8-DHF, 7,8 dihydroxyflavone]",concentration activating TrkB receptors,[9],250 nM
"CC(C)=CCC[C@](C)(O)[C@H]1CC[C@]2(C)[C@@H]1[C@H](O)C[C@@H]1[C@@]3(C)CC[C@H](O[C@@H]4O[C@H](CO)[C@@H](O)[C@H](O)[C@H]4O[C@@H]4O[C@H](CO)[C@@H](O)[C@H](O)[C@H]4O)C(C)(C)[C@@H]3CC[C@]12C [Rg3, ginsenoside Rg3]",increase in the duration of progression free survival,[10],20%
O=C1N[C@@H](Cc2cnc[nH]2)C(=O)N2CCC[C@@H]12 [Cyclo His-Pro],"biphasic half-life, first phase",[11],1 min
same,"biphasic half-life, second phase",[11],33 min
same,log P,[2],−1.48
"C[C@H](N)C(=O)N[C@@H](CCC(N)=O)C(=O)O [AG, Alanyl-Glutamine] (H-Ala-Gln-OH)",plasma half-life,[12],15.6 min
same,log P,[2],−2.15
O=C(O)[C@H]1O[C@@H](Oc2cc3oc(-c4ccc(O)cc4)cc(=O)c3c(O)c2O)[C@H](O)[C@@H](O)[C@@H]1O [scutellarin],bioavailability,[13]; oral,less than 3%
same,factor of decrease of plasma concentration,[13]; over about an hour,about 10
C=CCc1ccc(O)c(-c2ccc(O)c(CC=C)c2)c1 [Honokiol],increase of GABA current,[14],about 900%
Nc1ccn([C@@H]2O[C@H](CO)[C@@H](O)[C@@H]2O)c(=O)n1 [Cytarabine],half-life in plasma,[15]; continuous infusion,126 min
same,half-life,[15]; intravenously delivered,7 to 107 min
same,half-life,[15]; subcutaneously delivered,18 min
"C[C@]12CC[C@@H](O)C[C@H]1CC[C@@H]1[C@@H]2CC[C@]2(C)[C@@H](C(=O)CO)CC[C@@H]12 [THDOC, tetrahydrodeoxycorticosterone]",increase of GABA current,[16],at least 700%
O=C1C[C@@H](c2ccccc2)Oc2cc(O)cc(O)c21 [Pinocembrin],EC50,[17],0.1 µM
"O=C(O)[C@H]1O[C@@H](Oc2c(-c3ccc(O)c(O)c3)oc3cc(O)cc(O)c3c2=O)[C@H](O)[C@@H](O)[C@@H]1O [Example Q3G, quercetin-3-O-glucuronide]",plasma elimination half-life,[18],140 min
same,MMP-9 induction,[19],suppressed
same,invasion of MDA-MB-231 breast cancer cells,[20],suppressed invasion
same,binding of [(3)H]-NA to β2-AR,[21],inhibited the binding
same,log P,[2],2.10
NC(=O)[C@@H]1CCCN1C(=O)[C@H](Cc1cnc[nH]1)NC(=O)[C@@H]1CCC(=O)N1 [TRH],half-life,[22],7.6 min
